Values of other authors, collected in US6683112B2, “Gabapentin prodrugs and formulations” (Andrx Corporation, priority 2000, dated 2004).

Tests used:
[1] = in water and in both basic and acidic conditions

Which metabolism (in humans) does the source give for `NCC1(CC(=O)O)CCCCC1` [Gabapentin, 1-(aminomethyl)cyclohexaneacetic acid] here?
The metabolism was “not extensively metabolized”.

What about the route of elimination (in humans) of the same molecule?
The route of elimination was “eliminated via renal excretion essentially unchanged”.

What about the oral bioavailability (typical dosage range 300-600 mgs T.I.D.) of the same molecule?
The oral bioavailability was “approximately sixty”.

And the elimination half life (unaltered by dose or following multiple dosing)?
Its elimination half life is “five to seven”.

And the solubility [1]?
Its solubility is “highly soluble”.
